Assay results published in US7723523B2, “Tetrahydropyridothiophenes” (4SC AG, priority 2004, dated 2010).
pIC50: −log10 of the molar value.

Experiments:
[1] = system: RKO (RKOp27) human colon adenocarcinoma cells; test: Alamar Blue cell viability assay, anti-proliferative/cytotoxic activity on proliferating RKOp27 cells; format: cell-based; conditions: absence of Ponasterone A, 72 hours incubation, read-out: IC50 RKO p27 proliferating
Protocol: The anti-proliferative/cytotoxic activity of the compounds described herein, can be tested on subclones of RKO (RKOp27) human colon adenocarcinoma cells (Schmidt et al., Oncogene 19, 2423-2429; 2000) using the Alamar Blue cell viability assay (described in O'Brien et al. Eur J Biochem 267, 5421-5426, 2000). The compounds are dissolved as 20 mM solutions in dimethylsulfoxide (DMSO) and subsequently diluted in semi-logarithmic steps. DMSO dilutions are further diluted 1:100 into Dulbecco's modified Eagle's medium (DMEM) containing 10% fetal calf serum to a final concentration twice as much as the final concentration in the test. RKO subclones are seeded into 96 well flat bottom plates at a density of 4000 cells per well in a volume of 50 μl per well. 24 hours after seeding 50 μl each of the compound dilutions in DMEM are added into each well of the 96 well plate. Each compound dilution is tested as quadruplicates. Wells containing untreated control cells are filled with 50 μl DMEM containing 1% DMSO. The cells are then incubated with the substances for 72 hours at 37° C. in a humidified atmosphere containing 5% carbon dioxide. To determine the viability of the cells, 10 μl of an Alamar Blue solution (Biosource) are added and the fluorescence is measured at an extinction of 544 nm and an emission of 590 nm. For the calculation of the cell viability the emission value from untreated cells is set as 100% viability and the emission rates of treated cells are set in relation to the values of untreated cells. Viabilities are expressed as % values.
The corresponding IC50 values of the compounds for anti-proliferative/cytotoxic activity are determined from the concentration-effect curves.
Representative IC50 values for anti-proliferation/cytotoxicity determined in the aforementioned assay are described in the table A (1st column), in which the numbers of the compound correspond to the numbers of the examples.

[2] = system: RKO colon adenocarcinoma cells (RKOp27) arrested by expression of ectopic p27Kip1; test: Alamar Blue cell viability assay on RKOp27 cells arrested by Ponasterone A-induced p27Kip1 (cell cycle specific mode of action); format: cell-based; conditions: Homo sapiens, RKOp27, 72 h, cells arrested by p27Kip1 induced with 10 μM Ponasterone A, 72 hours incubation, read-out: IC50 RKO p27 arrested
Protocol: To determine the cell cycle specific mode of action, subclones of RKO colon adenocarcinoma cells (RKOp27 or RKOp21 as described by Schmidt et al. in Oncogene 19, 2423-2429; 2000) are seeded into 96 well flat bottom plates at a density of 16000 cells per well in a volume of 50 μl per well in DMEM growth medium with 10% FCS containing 10 μM Ponasterone A. 24 hours after seeding 50 μl each of the compound dilutions in DMEM are added into each well of the 96 well plate. Each compound dilution is tested as quadruplicates. Wells containing untreated control cells are filled with 50 μl DMEM containing 1% DMSO. The cells are then incubated with the substances for 72 hours at 37° C. in a humidified atmosphere containing 5% carbon dioxide. To determine the viability of the cells, 10 μl of an Alamar Blue solution (Biosource) are added and the fluorescence is measured at an extinction of 544 nm and an emission of 590 nm. For the calculation of the cell viability the emission value from untreated cells is set as 100% viability and the emission rates of treated cells are set in relation to the values of untreated cells. Viabilities are expressed as % values. Viability is compared of proliferating cells grown in the absence of the inducer Ponasterone A, versus viability of cells arrested by the expression of ectopic p27Kip1 induced by Ponasterone A. The data of this experimental setting are summarized in table A (2nd column).

Question: With `CC(=O)N1CCc2c(sc(NC(=O)/C=C/c3ccccc3)c2C#N)C1` [Example 34, (E)-N-(6-Acetyl-3-cyano-4,5,6,7-tetrahydro-thieno[2,3-c]pyridin-2-yl)-3-phenyl-acrylamide] as the compound, how does the pIC50 [1] read?
Answer: ≥ 5.70

Question: And the pIC50 [2]?
Answer: < 4.00

Question: With `CCSC(=O)N1CCc2c(sc(NC(=O)/C=C/c3ccccc3)c2C#N)C1` [Example 35, 3-Cyano-2-((E)-3-phenyl-allanoylamino)-4,7-dihydro-5H-thieno[2,3-c]pyridine-6-carbothioic acid S-ethyl ester] as the compound, how does the pIC50 [1] read?
Answer: ≥ 5.70

Question: And the pIC50 [2]?
Answer: < 4.00

Question: Which results are given for `CCSC(=O)N1CCc2c(sc(NC(=O)/C=C/c3cccnc3)c2C#N)C1` [Example 36, 3-Cyano-2-((E)-3-pyridin-3-yl-allanoylamino)-4,7-dihydro-5H-thieno[2,3-c]pyridine-6-carbothioic acid S-ethyl ester]?
Answer: pIC50 [1]: ≥ 5.70; pIC50 [2]: < 4.00

Question: What does the source list for `CCNC(=O)N1CCc2c(sc(NC(=O)/C=C/c3ccccc3)c2C#N)C1` [Example 37, 3-Cyano-2-((E)-phenyl-allanoylamino)-4,7-dihydro-5H-thieno[2,3-c]pyridine-6-carboxylic acid ethylamide]?
Answer: pIC50 [1]: ≥ 5.70; pIC50 [2]: < 4.00

Question: With `CCNC(=O)N1CCc2c(sc(NC(=O)/C=C/c3cccnc3)c2C#N)C1` [Example 38, 3-Cyano-2-((E)-3-pyridin-3-yl-allanoylamino)-4,7-dihydro-5H-thieno[2,3-c]pyridine-6-carboxylic acid ethylamide] as the compound, how does the pIC50 [1] read?
Answer: ≥ 5.70

Question: And the pIC50 [2]?
Answer: < 4.00

Question: How did the pIC50 [1] turn out when `CCCC(=O)N1CCc2c(sc(NC(=O)/C=C/c3cccnc3)c2C#N)C1` [Example 39, (E)-N-(6-Butyryl-3-cyano-4,5,6,7-tetrahydro-thieno[2,3-c]pyridin-2-yl)-3-pyridin-3-yl-acrylamide] was run?
Answer: ≥ 5.70

Question: And the pIC50 [2]?
Answer: < 4.00

Question: `CCCCOC(=O)N1CCc2c(sc(NC(=O)/C=C/c3cccnc3)c2C#N)C1` [Example 43, 3-Cyano-2-((E)-3-pyridin-3-yl-allanoylamino)-4,7-dihydro-5H-thieno[2,3-c]pyridine-6-carboxylic acid butyl ester] was tested. Which pIC50 [1] did it give?
Answer: ≥ 5.70

Question: And the pIC50 [2]?
Answer: < 4.00

Question: How did the pIC50 [1] turn out when `COC(=O)N1CCc2c(sc(NC(=O)/C=C/c3cccnc3)c2C#N)C1` [Example 44, 3-Cyano-2-((E)-3-pyridin-3-yl-allanoylamino)-4,7-dihydro-5H-thieno[2,3-c]pyridine-6-carboxylic acid methyl ester] was run?
Answer: ≥ 5.70

Question: What about the pIC50 [2] of the same compound?
Answer: < 4.00

Question: `COc1cccc(OC(=O)N2CCc3c(sc(NC(=O)/C=C/c4cccnc4)c3C#N)C2)c1` [Example 45, 3-Cyano-2-((E)-3-pyridin-3-yl-allanoylamino)-4,7-dihydro-5H-thieno[2,3-c]pyridine-6-carboxylic acid 3-methoxy-phenyl ester] was tested. Which pIC50 [1] did it give?
Answer: ≥ 5.70

Question: What about the pIC50 [2] of the same compound?
Answer: < 4.00

Question: `N#Cc1c(NC(=O)/C=C/c2cccnc2)sc2c1CCN(C(=O)OCCc1ccccc1)C2` [Example 47, 3-Cyano-2-((E)-3-pyridin-3-yl-allanoylamino)-4,7-dihydro-5H-thieno[2,3-c]pyridine-6-carboxylic acid phenethyl ester] was tested. Which pIC50 [1] did it give?
Answer: ≥ 5.70

Question: And the pIC50 [2]?
Answer: < 4.00

Question: How did the pIC50 [1] turn out when `CCSC(=O)N1CCc2c(sc(NC(=O)/C=C/c3ccccc3Cl)c2C#N)C1` [Example 48, 2-[(E)-3-(2-Chloro-phenyl)-allanoylamino]-3-cyano-4,7-dihydro-5H-thieno[2,3-c]pyridine-6-carbothioic acid S-ethyl ester] was run?
Answer: ≥ 5.70

Question: What about the pIC50 [2] of the same compound?
Answer: ≤ 4.00

Question: Which results are given for `CCCCCSC(=O)N1CCc2c(sc(NC(=O)/C=C/c3ccccc3)c2C#N)C1` [Example 49, 3-Cyano-2-((E)-3-phenyl-allanoylamino)-4,7-dihydro-5H-thieno[2,3-c]pyridine-6-carbothioic acid S-pentyl ester]?
Answer: pIC50 [1]: ≥ 5.70; pIC50 [2]: ≤ 4.00

Question: How did the pIC50 [1] turn out when `CCSC(=O)N1CCc2c(sc(NC(=O)/C=C/c3ccccc3OC)c2C#N)C1` [Example 50, 3-Cyano-2-[(E)-3-(2-methoxy-phenyl)-allanoylamino]-4,7-dihydro-5H-thieno[2,3-c]pyridine-6-carbothioic acid S-ethyl ester] was run?
Answer: ≥ 5.70

Question: And the pIC50 [2]?
Answer: ≤ 4.00

Question: With `N#Cc1c(NC(=O)/C=C/c2ccccc2)sc2c1CCN(C(=O)n1ccnc1)C2` [Example 53, (E)-N-[3-Cyano-6-(1-imidazol-1-yl-methanoyl)-4,5,6,7-tetrahydro-thieno[2,3-c]pyridin-2-yl]-3-phenyl-acrylamide] as the compound, how does the pIC50 [1] read?
Answer: ≥ 5.70

Question: And the pIC50 [2]?
Answer: ≤ 4.00

Question: `CCOc1ccccc1/C=C/C(=O)Nc1sc2c(c1C#N)CCN(C(=O)OC(C)(C)C)C2` [Example 54, 3-Cyano-2-[(E)-3-(2-ethoxy-phenyl)-allanoylamino]-4,7-dihydro-5H-thieno[2,3-c]pyridine-6-carboxylic acid tert-butyl ester] was tested. Which pIC50 [1] did it give?
Answer: ≥ 6.30

Question: And the pIC50 [2]?
Answer: ≤ 4.30

Question: `CC(C)(C)OC(=O)N1CCc2c(sc(NC(=O)/C=C/c3ccoc3)c2C#N)C1` [Example 55, 3-Cyano-2-((E)-3-furan-3-yl-allanoylamino)-4,7-dihydro-5H-thieno[2,3-c]pyridine-6-carboxylic acid tert-butyl ester] was tested. Which pIC50 [1] did it give?
Answer: ≥ 5.70

Question: What about the pIC50 [2] of the same compound?
Answer: ≤ 4.00

Question: What does the source list for `CCOC(=O)N1CCc2c(sc(NC(=O)/C=C/c3c(F)ccc(F)c3Cl)c2C#N)C1` [Example 57, 2-[(E)-3-(2-Chloro-3,6-difluoro-phenyl)-allanoylamino]-3-cyano-4,7-dihydro-5H-thieno[2,3-c]pyridine-6-carboxylic acid ethyl ester]?
Answer: pIC50 [1]: ≥ 5.70; pIC50 [2]: ≤ 4.00

Question: With `CCOC(=O)N1CCc2c(sc(NC(=O)/C=C/c3ccc(Cl)cc3F)c2C#N)C1` [Example 59, 2-[(E)-3-(4-Chloro-2-fluoro-phenyl)-allanoylamino]-3-cyano-4,7-dihydro-5H-thieno[2,3-c]pyridine-6-carboxylic acid ethyl ester] as the compound, how does the pIC50 [1] read?
Answer: ≥ 5.70

Question: And the pIC50 [2]?
Answer: ≤ 4.00

Question: How did the pIC50 [1] turn out when `CCOC(=O)N1CCc2c(sc(NC(=O)/C=C/c3ccc(OCC)cc3)c2C#N)C1` [Example 60, 3-Cyano-2-[(E)-3-(4-ethoxy-phenyl)-allanoylamino]-4,7-dihydro-5H-thieno[2,3-c]pyridine-6-carboxylic acid ethyl ester] was run?
Answer: ≥ 5.70

Question: And the pIC50 [2]?
Answer: ≤ 4.00

Question: What does the source list for `CCOC(=O)N1CCc2c(sc(NC(=O)/C=C/c3cccc(Cl)c3F)c2C#N)C1` [Example 61, 3-Cyano-2-[(E)-3-(3-chloro-2-fluoro-phenyl)-allanoylamino]-4,7-dihydro-5H-thieno[2,3-c]pyridine-6-carboxylic acid ethyl ester]?
Answer: pIC50 [1]: ≥ 5.70; pIC50 [2]: ≤ 4.00

Question: How did the pIC50 [1] turn out when `CCOC(=O)N1CCc2c(sc(NC(=O)/C=C/c3ccccc3OCC)c2C#N)C1` [Example 62, 3-Cyano-2-[(E)-3-(2-ethoxy-phenyl)-allanoylamino]-4,7-dihydro-5H-thieno[2,3-c]pyridine-6-carboxylic acid ethyl ester] was run?
Answer: ≥ 5.70

Question: And the pIC50 [2]?
Answer: ≤ 4.00

Question: Which results are given for `CCOC(=O)N1CCc2c(sc(NC(=O)/C=C/c3sccc3Cl)c2C#N)C1` [Example 64, 2-[(E)-3-(3-Chloro-thiophen-2-yl)-allanoylamino]-cyano-4,7-dihydro-5H-thieno[2,3-c]pyridine-6-carboxylic acid ethyl ester]?
Answer: pIC50 [1]: ≥ 5.70; pIC50 [2]: ≤ 4.00

Question: How did the pIC50 [1] turn out when `CCOC(=O)N1CCc2c(sc(NC(=O)/C=C/c3c(F)cccc3F)c2C#N)C1` [Example 65, 3-Cyano-2-[(E)-3-(2,6-difluoro-phenyl)-allanoylamino]-4,7-dihydro-5H-thieno[2,3-c]pyridine-6-carboxylic acid ethyl ester] was run?
Answer: ≥ 5.70

Question: What about the pIC50 [2] of the same compound?
Answer: ≤ 4.00

Question: With `CCOC(=O)N1CCc2c(sc(NC(=O)/C=C/c3ccccc3Br)c2C#N)C1` [Example 66, 2-[(E)-3-(2-Bromo-phenyl)-allanoylamino]-3-cyano-4,7-dihydro-5H-thieno[2,3-c]pyridine-6-carboxylic acid ethyl ester] as the compound, how does the pIC50 [1] read?
Answer: ≥ 5.70

Question: And the pIC50 [2]?
Answer: ≤ 4.00
